{"source": "patent US10202361B2", "about": "“Pyridazinones as herbicides” (E I DU PONT DE NEMOURS AND COMPANY, priority 2014, dated 2019)", "format_in_all_cases": "in vivo", "key": {"[1]": {"tested_on": "oat, wild (wild oat, Avena fatua)", "assay": "Test C pre-/postemergence greenhouse herbicide test", "conditions": "Postemergence", "in_short": "(§1)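 Plant response is scored on a 0–100 scale, where 100 means complete control, by visual comparison with controls 13 to 15 d after greenhouse treatment. Applications are made pre- and postemergence using a surfactant-containing, non-phytotoxic solvent formulation.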"}, "[2]": {"tested_on": "barnyardgrass (Echinochloa crus-galli)", "assay": "Test C pre-/postemergence greenhouse herbicide test", "conditions": "Barnyardgrass, Postemergence", "in_short": "as §1"}, "[3]": {"tested_on": "crabgrass, Large (large crabgrass, Digitaria sanguinalis)", "assay": "Test A pre-/postemergence greenhouse herbicide test", "conditions": "Digitaria sanguinalis, 240 h, 0 to 100 scale (0 no effect, 100 complete control), approx. 10 d, read-out: Plant response rating, Crabgrass, Large; for pest or weed control at 125 g/ha: 125 g ai/ha; for pest or weed control at 500 g/ha: 500 g ai/ha", "in_short": "(§2)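 Greenhouse pot test, loam/sand soil. Pre: directed soil spray at seeding; post: foliar spray, 1–2 leaf, 2–10 cm height, same day. Read-out ~10 d: visual % control, 0–100 scale vs untreated.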"}, "[4]": {"tested_on": "wheat (Triticum aestivum)", "assay": "Test A pre-/postemergence greenhouse herbicide test", "conditions": "Triticum aestivum, 240 h, 0 to 100 scale (0 no effect, 100 complete control), approx. 10 d, read-out: Plant response rating, Wheat; for plant injury at 125 g/ha: 125 g ai/ha; for plant injury at 500 g/ha: 500 g ai/ha", "in_short": "as §2"}, "corn (Zea mays)": {"tested_on": "corn (Zea mays)", "assay": "Test A pre-/postemergence greenhouse herbicide test", "conditions": "Zea mays, 240 h, 0 to 100 scale (0 no effect, 100 complete control), approx. 10 d; for Corn plant response rating (crop injury, 0 = no effect, 100 = complete kill) at 125 g/ha: 125 g ai/ha; for Corn plant response rating (crop injury, 0 = no effect, 100 = complete kill) at 500 g/ha: 500 g ai/ha", "in_short": "as §2"}, "[5]": {"tested_on": "foxtail, giant (giant foxtail, Setaria faberii)", "assay": "Test A pre-/postemergence greenhouse herbicide test", "conditions": "Setaria faberi, 240 h, 0 to 100 scale (0 no effect, 100 complete control), approx. 10 d, read-out: Plant response rating, Foxtail, Giant; for pest or weed control at 125 g/ha: 125 g ai/ha; for pest or weed control at 500 g/ha: 500 g ai/ha", "in_short": "as §2"}, "[6]": {"tested_on": "barnyardgrass (Echinochloa crus-galli)", "assay": "Test A pre-/postemergence greenhouse herbicide test", "conditions": "Echinochloa crus-galli, 240 h, 0 to 100 scale (0 no effect, 100 complete control), approx. 10 d, read-out: Plant response rating, Barnyardgrass; for pest or weed control at 125 g/ha: 125 g ai/ha; for pest or weed control at 500 g/ha: 500 g ai/ha", "in_short": "as §2"}, "[7]": {"tested_on": "velvetleaf (Abutilon theophrasti)", "assay": "Test A pre-/postemergence greenhouse herbicide test", "conditions": "Abutilon theophrasti, 240 h, 0 to 100 scale (0 no effect, 100 complete control), approx. 10 d, read-out: Plant response rating, Velvetleaf; for pest or weed control at 125 g/ha: 125 g ai/ha; for pest or weed control at 500 g/ha: 500 g ai/ha", "in_short": "as §2"}, "[8]": {"tested_on": "pigweed (Amaranthus retroflexus)", "assay": "Test A pre-/postemergence greenhouse herbicide test", "conditions": "Amaranthus retroflexus, 240 h, 0 to 100 scale (0 no effect, 100 complete control), approx. 10 d, read-out: Plant response rating, Pigweed; for pest or weed control at 125 g/ha: 125 g ai/ha; for pest or weed control at 500 g/ha: 500 g ai/ha", "in_short": "as §2"}, "[9]": {"tested_on": "morningglory (Ipomoea spp.)", "assay": "Test A pre-/postemergence greenhouse herbicide test", "conditions": "Ipomoea, 240 h, 0 to 100 scale (0 no effect, 100 complete control), approx. 10 d, read-out: Plant response rating, Morningglory; for pest or weed control at 125 g/ha: 125 g ai/ha; for pest or weed control at 500 g/ha: 500 g ai/ha", "in_short": "as §2"}}, "note": "Where two headings read alike, the source gives them in different places."}
{"smiles": "Cc1cc(Oc2ccnc(C(F)(F)F)c2)nn(-c2ccc(C(F)(F)F)cc2)c1=O", "note": "[Compound 6, 4-methyl-2-[4-(trifluoromethyl)phenyl]-6-[[2-(trifluoromethyl)-4-pyridinyl]oxy]-3(2H)-pyridazinone]", "values": [{"measurement": "Plant response rating", "setting": "[1]; 31 g ai/ha", "value": 20}, {"measurement": "Plant response rating", "setting": "[1]; 62 g ai/ha", "value": 25}, {"measurement": "Plant response rating", "setting": "[1]; 125 g ai/ha", "value": 25}, {"measurement": "Plant response rating", "setting": "[1]; 250 g ai/ha", "value": 50}, {"measurement": "Plant response rating", "setting": "[2]; 31 g ai/ha", "value": 10}, {"measurement": "Plant response rating", "setting": "[2]; 62 g ai/ha", "value": 10}, {"measurement": "Plant response rating", "setting": "[2]; 125 g ai/ha", "value": 35}, {"measurement": "Plant response rating", "setting": "[2]; 250 g ai/ha", "value": 65}, {"measurement": "pest or weed control at 125 g/ha", "setting": "[3]; post-emergence, Postemergence", "value": 80, "unit": "%"}, {"measurement": "pest or weed control at 500 g/ha", "setting": "[3]; post-emergence, Postemergence", "value": 90, "unit": "%"}, {"measurement": "pest or weed control at 125 g/ha", "setting": "[3]; pre-emergence, Preemergence", "value": 100, "unit": "%"}, {"measurement": "pest or weed control at 500 g/ha", "setting": "[3]; pre-emergence, Preemergence", "value": 100, "unit": "%"}, {"measurement": "plant injury at 125 g/ha", "setting": "[4]; post-emergence, Postemergence", "value": 40, "unit": "%"}, {"measurement": "plant injury at 500 g/ha", "setting": "[4]; post-emergence, Postemergence", "value": 50, "unit": "%"}, {"measurement": "plant injury at 125 g/ha", "setting": "[4]; pre-emergence, Preemergence", "value": 10, "unit": "%"}, {"measurement": "plant injury at 500 g/ha", "setting": "[4]; pre-emergence, Preemergence", "value": 30, "unit": "%"}, {"measurement": "Corn plant response rating (crop injury, 0 = no effect, 100 = complete kill) at 125 g/ha", "setting": "corn (Zea mays); post-emergence, Postemergence", "value": 40, "unit": "%"}, {"measurement": "Corn plant response rating (crop injury, 0 = no effect, 100 = complete kill) at 500 g/ha", "setting": "corn (Zea mays); post-emergence, Postemergence", "value": 50, "unit": "%"}, {"measurement": "Corn plant response rating (crop injury, 0 = no effect, 100 = complete kill) at 125 g/ha", "setting": "corn (Zea mays); pre-emergence, Preemergence", "value": 10, "unit": "%"}, {"measurement": "Corn plant response rating (crop injury, 0 = no effect, 100 = complete kill) at 500 g/ha", "setting": "corn (Zea mays); pre-emergence, Preemergence", "value": 20, "unit": "%"}, {"measurement": "pest or weed control at 125 g/ha", "setting": "[5]; post-emergence, Postemergence", "value": 80, "unit": "%"}, {"measurement": "pest or weed control at 500 g/ha", "setting": "[5]; post-emergence, Postemergence", "value": 100, "unit": "%"}, {"measurement": "pest or weed control at 125 g/ha", "setting": "[5]; pre-emergence, Preemergence", "value": 100, "unit": "%"}, {"measurement": "pest or weed control at 500 g/ha", "setting": "[5]; pre-emergence, Preemergence", "value": 100, "unit": "%"}, {"measurement": "pest or weed control at 125 g/ha", "setting": "[6]; post-emergence, Postemergence", "value": 50, "unit": "%"}, {"measurement": "pest or weed control at 500 g/ha", "setting": "[6]; post-emergence, Postemergence", "value": 90, "unit": "%"}, {"measurement": "pest or weed control at 125 g/ha", "setting": "[6]; pre-emergence, Preemergence", "value": 40, "unit": "%"}, {"measurement": "pest or weed control at 500 g/ha", "setting": "[6]; pre-emergence, Preemergence", "value": 80, "unit": "%"}, {"measurement": "pest or weed control at 125 g/ha", "setting": "[7]; post-emergence, Postemergence", "value": 100, "unit": "%"}, {"measurement": "pest or weed control at 500 g/ha", "setting": "[7]; post-emergence, Postemergence", "value": 100, "unit": "%"}, {"measurement": "pest or weed control at 125 g/ha", "setting": "[7]; pre-emergence, Preemergence", "value": 70, "unit": "%"}, {"measurement": "pest or weed control at 500 g/ha", "setting": "[7]; pre-emergence, Preemergence", "value": 80, "unit": "%"}, {"measurement": "pest or weed control at 125 g/ha", "setting": "[8]; post-emergence, Postemergence", "value": 100, "unit": "%"}, {"measurement": "pest or weed control at 500 g/ha", "setting": "[8]; post-emergence, Postemergence", "value": 100, "unit": "%"}, {"measurement": "pest or weed control at 125 g/ha", "setting": "[8]; pre-emergence, Preemergence", "value": 100, "unit": "%"}, {"measurement": "pest or weed control at 500 g/ha", "setting": "[8]; pre-emergence, Preemergence", "value": 100, "unit": "%"}, {"measurement": "pest or weed control at 125 g/ha", "setting": "[9]; post-emergence, Postemergence", "value": 80, "unit": "%"}, {"measurement": "pest or weed control at 500 g/ha", "setting": "[9]; post-emergence, Postemergence", "value": 100, "unit": "%"}, {"measurement": "pest or weed control at 125 g/ha", "setting": "[9]; pre-emergence, Preemergence", "value": 80, "unit": "%"}, {"measurement": "pest or weed control at 500 g/ha", "setting": "[9]; pre-emergence, Preemergence", "value": 90, "unit": "%"}]}
